Test results from ChEMBL document CHEMBL1955729, “N⁴-(3-Bromophenyl)-7-(substituted benzyl) pyrrolo[2,3-d]pyrimidines as potent multiple receptor tyrosine kinase inhibitors: design, synthesis, and in vivo evaluation” (Bioorg Med Chem, 2012).
Calls of active or inactive are those of the source. No cut-off for these calls is given here.

Columns and labels:
[1] = target: T1, Vascular endothelial growth factor receptor 2 (Homo sapiens, UniProt P35968)
[2] = target: T2, Platelet-derived growth factor receptor beta (Homo sapiens, UniProt P09619); assay: Inhibition of PDGFBB-induced PDGFRbeta autophosphorylation in human SF539 cells incubated for 60 mins prior to PDGFBB-induction measured after 10 mins by phosphotyrosine ELISA; type: cell-based, SF-539
[3] = target: T3, Vascular endothelial growth factor receptor 1 (Homo sapiens, UniProt P17948)
[4] = target: Epidermal growth factor receptor (Homo sapiens, UniProt P00533)
COLO 205 [5] = assay: Antimetastatic activity against human COLO205 cells xenografted in athymic NIH-II mouse at 10 mg/kg, ip administered for 3 days per week by hematoxylin and eosin staining; type: functional, organism-based; set-up: dose 10 mg/kg
Mus musculus = assay: (§1) Toxicity in NCr nu/nu mouse assessed as body weight loss administered for 3 days per week measured after 6 weeks; type: organism-based; conditions: in vivo, 1008 h
COLO 205 [6] = assay: Antiangiogenic activity in human COLO205 cells xenografted in athymic NIH-II mouse at 10 mg/kg, ip administered 3 days per week by hematoxylin and eosin staining relative to control; type: functional, organism-based; set-up: dose 10 mg/kg
COLO 205 [7] = assay: Antitumor activity against human COLO205 cells xenografted in athymic NIH-II mouse assessed as decrease in tumor growth rate at 10 mg/kg, ip administered 3 days per week relative to control; type: functional, organism-based; set-up: dose 10 mg/kg
COLO 205 [8] = assay: Antimetastatic activity against human COLO205 cells xenografted in athymic NIH-II mouse at 35 mg/kg, ip administered for 3 days per week by hematoxylin and eosin staining; type: functional, organism-based; set-up: dose 35 mg/kg
COLO 205 [9] = assay: Antitumor activity against human COLO205 cells xenografted in athymic NIH-II mouse assessed as decrease in tumor growth rate at 35 mg/kg, ip administered 3 days per week relative to control; type: functional, organism-based; set-up: dose 35 mg/kg
[10] = as §1; type: organism-based; conditions: NCr nu/nu, in vivo
COLO 205 [11] = assay: Antiangiogenic activity in human COLO205 cells xenografted in athymic NIH-II mouse at 35 mg/kg, ip administered 3 days per week by hematoxylin and eosin staining relative to control; type: functional, organism-based; set-up: dose 35 mg/kg
[12] = target: T2, Platelet-derived growth factor receptor beta
[13] = target: T3, Vascular endothelial growth factor receptor 1; remark: listed apart in the source
[14] = target: T1, Vascular endothelial growth factor receptor 2; remark: listed apart in the source

T1 sequence (P35968 whole entry): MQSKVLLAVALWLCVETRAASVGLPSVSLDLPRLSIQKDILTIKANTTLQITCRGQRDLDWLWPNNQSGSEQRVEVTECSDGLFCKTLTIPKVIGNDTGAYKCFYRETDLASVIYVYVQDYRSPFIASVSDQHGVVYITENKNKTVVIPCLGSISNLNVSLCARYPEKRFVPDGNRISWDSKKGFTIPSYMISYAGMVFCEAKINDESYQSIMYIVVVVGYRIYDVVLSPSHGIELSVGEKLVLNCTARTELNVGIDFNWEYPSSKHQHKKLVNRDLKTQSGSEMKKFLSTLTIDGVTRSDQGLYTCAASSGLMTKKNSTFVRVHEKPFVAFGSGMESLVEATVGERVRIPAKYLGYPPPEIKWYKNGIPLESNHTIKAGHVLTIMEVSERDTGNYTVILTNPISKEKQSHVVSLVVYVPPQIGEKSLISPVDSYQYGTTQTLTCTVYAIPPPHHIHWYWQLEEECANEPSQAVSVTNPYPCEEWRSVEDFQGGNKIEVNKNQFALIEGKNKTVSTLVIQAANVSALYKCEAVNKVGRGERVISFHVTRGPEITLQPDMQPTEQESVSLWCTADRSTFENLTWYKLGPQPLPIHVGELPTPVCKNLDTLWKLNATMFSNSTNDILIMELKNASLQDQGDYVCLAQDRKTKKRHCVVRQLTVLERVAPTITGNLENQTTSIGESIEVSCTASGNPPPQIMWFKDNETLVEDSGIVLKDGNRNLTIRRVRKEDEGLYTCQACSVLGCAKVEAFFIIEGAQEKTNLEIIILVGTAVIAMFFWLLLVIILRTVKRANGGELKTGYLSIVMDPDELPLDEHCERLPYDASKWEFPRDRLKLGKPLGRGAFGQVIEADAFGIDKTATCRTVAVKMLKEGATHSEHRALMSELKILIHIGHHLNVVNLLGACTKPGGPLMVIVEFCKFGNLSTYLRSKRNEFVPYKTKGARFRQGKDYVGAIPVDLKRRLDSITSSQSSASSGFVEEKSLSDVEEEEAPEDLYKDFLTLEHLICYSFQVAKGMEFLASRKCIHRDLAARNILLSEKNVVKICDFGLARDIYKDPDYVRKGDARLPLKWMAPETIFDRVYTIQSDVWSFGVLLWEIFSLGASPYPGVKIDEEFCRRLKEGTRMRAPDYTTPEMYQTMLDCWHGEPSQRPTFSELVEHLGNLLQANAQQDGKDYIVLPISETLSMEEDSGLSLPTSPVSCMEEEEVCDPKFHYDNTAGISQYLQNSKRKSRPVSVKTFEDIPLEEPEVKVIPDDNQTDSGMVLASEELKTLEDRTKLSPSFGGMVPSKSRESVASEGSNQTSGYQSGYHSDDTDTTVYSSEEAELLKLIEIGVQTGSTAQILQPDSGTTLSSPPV
Sequence of Epidermal growth factor receptor (P00533 whole entry): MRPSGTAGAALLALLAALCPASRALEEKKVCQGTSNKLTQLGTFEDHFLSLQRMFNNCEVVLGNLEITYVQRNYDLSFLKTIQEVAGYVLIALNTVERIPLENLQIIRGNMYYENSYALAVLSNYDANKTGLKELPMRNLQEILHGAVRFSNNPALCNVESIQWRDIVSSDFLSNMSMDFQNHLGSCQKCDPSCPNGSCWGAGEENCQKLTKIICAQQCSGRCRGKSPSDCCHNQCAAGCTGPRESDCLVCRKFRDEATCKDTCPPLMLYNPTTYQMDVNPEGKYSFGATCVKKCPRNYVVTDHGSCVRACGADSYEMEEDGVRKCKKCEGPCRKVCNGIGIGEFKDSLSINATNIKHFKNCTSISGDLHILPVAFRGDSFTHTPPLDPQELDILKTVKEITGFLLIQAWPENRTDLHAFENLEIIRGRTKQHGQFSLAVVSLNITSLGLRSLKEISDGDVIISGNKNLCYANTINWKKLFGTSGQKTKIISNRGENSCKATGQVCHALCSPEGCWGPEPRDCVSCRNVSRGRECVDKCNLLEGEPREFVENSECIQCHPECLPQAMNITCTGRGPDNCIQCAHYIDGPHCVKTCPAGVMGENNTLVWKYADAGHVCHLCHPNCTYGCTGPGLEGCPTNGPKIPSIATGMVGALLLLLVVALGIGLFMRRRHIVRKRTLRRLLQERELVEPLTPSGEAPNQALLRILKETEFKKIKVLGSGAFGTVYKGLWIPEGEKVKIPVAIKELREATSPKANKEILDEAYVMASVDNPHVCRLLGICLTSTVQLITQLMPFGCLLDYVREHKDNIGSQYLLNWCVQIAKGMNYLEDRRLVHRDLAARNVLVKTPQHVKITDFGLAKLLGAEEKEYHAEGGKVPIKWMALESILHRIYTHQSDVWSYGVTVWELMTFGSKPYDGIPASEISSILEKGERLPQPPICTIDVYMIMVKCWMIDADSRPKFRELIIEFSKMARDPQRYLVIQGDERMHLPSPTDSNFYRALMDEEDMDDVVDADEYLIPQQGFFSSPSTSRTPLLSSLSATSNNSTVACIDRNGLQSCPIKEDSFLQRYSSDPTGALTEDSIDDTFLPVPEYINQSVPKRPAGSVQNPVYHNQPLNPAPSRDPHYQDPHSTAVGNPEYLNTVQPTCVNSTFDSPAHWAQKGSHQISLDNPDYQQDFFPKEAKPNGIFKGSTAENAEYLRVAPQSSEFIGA
T3 sequence (P17948 whole entry): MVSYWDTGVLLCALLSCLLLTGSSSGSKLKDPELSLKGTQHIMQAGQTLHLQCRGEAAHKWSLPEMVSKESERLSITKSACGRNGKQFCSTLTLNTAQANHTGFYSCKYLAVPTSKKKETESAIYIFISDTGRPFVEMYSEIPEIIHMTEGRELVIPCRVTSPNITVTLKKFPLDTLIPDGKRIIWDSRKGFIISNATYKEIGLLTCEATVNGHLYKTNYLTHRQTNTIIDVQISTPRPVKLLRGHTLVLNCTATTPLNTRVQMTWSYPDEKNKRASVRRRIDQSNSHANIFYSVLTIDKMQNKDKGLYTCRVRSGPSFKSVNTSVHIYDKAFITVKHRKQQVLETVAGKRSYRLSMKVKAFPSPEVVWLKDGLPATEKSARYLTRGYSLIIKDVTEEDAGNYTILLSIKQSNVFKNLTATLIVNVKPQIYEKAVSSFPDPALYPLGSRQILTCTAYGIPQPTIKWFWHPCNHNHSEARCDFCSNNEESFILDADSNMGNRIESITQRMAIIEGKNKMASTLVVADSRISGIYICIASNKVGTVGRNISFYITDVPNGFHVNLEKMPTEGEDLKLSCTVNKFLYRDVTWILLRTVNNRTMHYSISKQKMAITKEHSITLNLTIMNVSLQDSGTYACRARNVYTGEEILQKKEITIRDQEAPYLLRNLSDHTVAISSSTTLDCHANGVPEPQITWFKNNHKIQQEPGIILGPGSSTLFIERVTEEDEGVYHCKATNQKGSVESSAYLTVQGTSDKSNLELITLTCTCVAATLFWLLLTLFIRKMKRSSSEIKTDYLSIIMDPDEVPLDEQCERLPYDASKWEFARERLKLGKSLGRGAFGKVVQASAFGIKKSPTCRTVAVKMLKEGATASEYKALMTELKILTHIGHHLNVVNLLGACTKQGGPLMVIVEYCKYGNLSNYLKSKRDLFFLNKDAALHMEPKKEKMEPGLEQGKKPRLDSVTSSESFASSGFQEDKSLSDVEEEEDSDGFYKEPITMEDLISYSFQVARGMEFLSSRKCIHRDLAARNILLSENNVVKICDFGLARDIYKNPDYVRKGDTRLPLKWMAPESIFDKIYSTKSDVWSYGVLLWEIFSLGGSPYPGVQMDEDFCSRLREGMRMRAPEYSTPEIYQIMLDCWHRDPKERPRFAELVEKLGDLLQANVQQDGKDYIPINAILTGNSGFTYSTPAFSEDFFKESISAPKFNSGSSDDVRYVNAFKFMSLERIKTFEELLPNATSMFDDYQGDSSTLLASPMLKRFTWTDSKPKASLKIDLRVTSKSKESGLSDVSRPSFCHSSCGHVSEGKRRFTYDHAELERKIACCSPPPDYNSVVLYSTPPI
T2 sequence (P09619 whole entry): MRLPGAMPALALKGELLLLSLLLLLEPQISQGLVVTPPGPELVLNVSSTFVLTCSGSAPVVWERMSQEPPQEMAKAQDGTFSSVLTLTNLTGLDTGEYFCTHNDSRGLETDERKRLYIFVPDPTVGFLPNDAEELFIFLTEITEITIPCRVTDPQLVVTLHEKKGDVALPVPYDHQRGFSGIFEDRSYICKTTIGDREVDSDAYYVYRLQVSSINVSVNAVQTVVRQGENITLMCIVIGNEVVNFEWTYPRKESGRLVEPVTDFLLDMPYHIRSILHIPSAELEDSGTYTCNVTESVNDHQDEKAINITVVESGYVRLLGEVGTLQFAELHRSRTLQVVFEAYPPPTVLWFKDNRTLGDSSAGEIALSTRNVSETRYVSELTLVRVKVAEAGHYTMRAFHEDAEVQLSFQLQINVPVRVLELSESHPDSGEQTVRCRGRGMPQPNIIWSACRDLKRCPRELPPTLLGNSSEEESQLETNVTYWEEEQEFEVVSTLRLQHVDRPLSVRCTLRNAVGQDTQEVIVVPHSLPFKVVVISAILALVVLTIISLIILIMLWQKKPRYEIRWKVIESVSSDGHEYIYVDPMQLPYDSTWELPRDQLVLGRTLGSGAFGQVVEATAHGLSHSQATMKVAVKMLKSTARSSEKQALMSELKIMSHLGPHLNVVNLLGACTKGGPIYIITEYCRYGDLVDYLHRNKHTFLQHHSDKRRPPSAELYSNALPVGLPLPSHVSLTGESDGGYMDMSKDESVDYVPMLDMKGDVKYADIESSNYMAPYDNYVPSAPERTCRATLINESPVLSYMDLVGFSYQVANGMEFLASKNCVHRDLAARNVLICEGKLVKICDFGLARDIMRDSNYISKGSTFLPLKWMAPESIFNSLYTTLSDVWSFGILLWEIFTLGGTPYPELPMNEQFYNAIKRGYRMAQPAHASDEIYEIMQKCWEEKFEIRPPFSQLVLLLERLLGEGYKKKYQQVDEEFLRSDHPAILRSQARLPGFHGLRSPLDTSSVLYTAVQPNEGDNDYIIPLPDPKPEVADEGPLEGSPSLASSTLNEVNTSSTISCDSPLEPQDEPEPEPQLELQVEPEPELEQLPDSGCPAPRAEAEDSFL

## Nc1nc(Nc2cccc(Br)c2)c2ccn(Cc3ccc(Cl)cc3)c2n1
[1]
  IC50: 65.3 µM
[2]
  IC50: > 500 µM
[3]
  IC50: 79.9 µM
[4]
  IC50: 99.9 µM

## COc1ccc(OC)c(Cn2ccc3c(Nc4cccc(Br)c4)nc(N)nc32)c1
[1]
  IC50: > 200 µM
[3]
  IC50: > 200 µM
[4]
  IC50: 69.2 µM

## Cc1[nH]c(/C=C2\C(=O)Nc3ccccc32)c(C)c1CCC(=O)O [ORANTINIB]
COLO 205 [5]
  Activity: inactive
Mus musculus
  MTD: 10 mg/kg
COLO 205 [6]
  Activity: Active
COLO 205 [7]
  TGI: Active

## Nc1nc(Nc2cccc(Br)c2)c2ccn(Cc3cccc4ccccc34)c2n1
[1]
  IC50: 14.9 µM
[2]
  IC50: 129 µM
[3]
  IC50: 150 µM
[4]
  IC50: > 200 µM

## Nc1nc(Nc2cccc(Br)c2)c2ccn(Cc3ccccc3Cl)c2n1
[1]
  IC50: 17.9 µM
COLO 205 [8]
  Activity: Active
COLO 205 [9]
  TGI: Active
[10]
  MTD at 1008 h: 35 mg/kg
[2]
  IC50: 1.5 µM
[3]
  IC50: 126 µM
[4]
  IC50: > 200 µM
COLO 205 [11]
  Activity: Active

## Nc1nc(Nc2cccc(Br)c2)c2cc(Cc3ccc(Cl)c(Cl)c3)[nH]c2n1
[12]
  IC50: > 50 µM

## COc1cc(Cn2ccc3c(Nc4cccc(Br)c4)nc(N)nc32)cc(OC)c1OC
[1]
  IC50: 25.7 µM
[2]
  IC50: 1.8 µM
[3]
  IC50: 156 µM
[4]
  IC50: > 200 µM

## Nc1nc(Nc2cccc(Br)c2)c2ccn(Cc3ccc(-c4ccccc4)cc3)c2n1
[1]
  IC50: 22.9 µM
[2]
  IC50: 129 µM
[3]
  IC50: > 200 µM
[4]
  IC50: > 200 µM

## Cc1ccccc1Cn1ccc2c(Nc3cccc(Br)c3)nc(N)nc21
[1]
  IC50: 113 µM
[2]
  IC50: 160 µM
[3]
  IC50: 129 µM
[4]
  IC50: 113 µM

## Nc1nc(Nc2cccc(Br)c2)c2cc(Cc3ccc(Cl)cc3)[nH]c2n1
[13]
  IC50: 42.7 µM
[14]
  IC50: 8.28 µM
[12]
  IC50: > 50 µM

## Nc1nc(Nc2cccc(Br)c2)c2ccn(Cc3ccc4ccccc4c3)c2n1
[1]
  IC50: 22.9 µM
[2]
  IC50: 212 µM
[3]
  IC50: 50.8 µM
[4]
  IC50: > 200 µM

## Nc1nc(Nc2cccc(Br)c2)c2ccn(Cc3ccc(Cl)c(Cl)c3)c2n1
[1]
  IC50: 64.5 µM
[2]
  IC50: 230 µM
[3]
  IC50: 119 µM
[4]
  IC50: > 200 µM

## Nc1nc(Nc2cccc(Br)c2)c2ccn(Cc3ccc(Cl)cc3Cl)c2n1
[1]
  IC50: > 200 µM
[2]
  IC50: 34.2 µM
[3]
  IC50: 138 µM
[4]
  IC50: > 200 µM

## Nc1nc(Nc2cccc(Br)c2)c2ccn(Cc3ccccc3)c2n1
[1]
  IC50: 23.8 µM
[2]
  IC50: > 500 µM
[3]
  IC50: 99.3 µM
[4]
  IC50: 166 µM
